Peptide text beside a SMILES is read from it. * marks the point of attachment. Cbz = O=C(OCc1ccccc1)*; CH2F = FC*
Columns and labels:
[1] = test system: NIH-3T3 cells stably expressing RIPK3-1xFv; assay: AP1-induced RIPK3 dimerization cell death, IncuCyte imaging; format: cell-based, murine; details: for effect on AP1 (RIPK3 dimerization)-induced cell death: 30 nM AP1, zVAD 50 μM, Nec1 30 μM, TNFR-Fc 200 ng/ml, siRNA 72 h before
Text: Fv domains rapidly dimerize in response to AP1 treatment that facilitated an investigation of the protein-protein interactions involved in RIPK3 activation and necroptosis (27a). For example, an Fv domain was appended to a C-terminus of RIPK3, that is adjacent to the RHIM domain, in an effort to mimic in situ RHIM-dependent interactions that define RIPK3 activation. RIPK3-1xFv was expressed in NIH-3T3 cells, a cell line that lacks endogenous RIPK3 expression and is therefore unresponsive to TNF-induced necroptosis. See, FIGS. 13A and 13B. Cell death responses of NIH-3T3 cells were quantified by construct expression over time using the IncuCyte imaging system, which allows precise quantification of cell death with high temporal resolution. For example, representative images were acquired from an IncuCyte Imager (data not shown). These images were NIH-3T3 cells stably expressing RIPK3-1xFV, treated with 10 nM AP1 (see FIG. 1B for a quantified graphical representation of this cell death). One set of images show a field of these cells undergoing RIPK3-dependent cell death; the media contains the cell impermeable DNA binding dye Sytox Green, which marks cells that have lost membrane integrity in green. Another set of images depicts the same image set, following analysis by the IncuCyte software package. This software counts each green (dead) cell in each image; counted cells are surrounded by purple halos. Each trace shown in this manuscript depicts data averaged from at least 3 independently treated wells of cells, each of which is imaged in at least 4 separate fields. Each experiment shown is representative of at least 3 separate replicates. All experiments on stably transduced cells is representative of at least three separate replicates performed on each of at least two distinct, independently-derived stable lines.
In the examples below, the following compounds were used: Recombinant murine TNF (Peprotech 315-01A) was used at 1 ng/ml unless otherwise specified; AP1 (Now commercialized by Clontech as “B/B Homodimerizer,” catalog #635059) was dissolved in ethanol to a concentration of 100 μM, then diluted in culture media to a final concentration of 30 nM unless otherwise indicated. zVAD (SM 13 Biochemicals SMFMK001) was dissolved in DMSO to a concentration of 50 mM, then diluted to 50 μM in culture media; Necrostatin-1(Sigma N9037-10MG) was dissolved in DMSO to a concentration of 30 mM, then diluted to 30 μM in culture media; TNFR-Fc (Fisher 430-RI-050) was used at a final concentration of 200 ng/ml; Shield drug was a kind gift of Dr. Tom Wandless and was used at a final concentration of 1 μM. SiGenome SMARTpool siRNAs were purchased from Dharmacon/Fisher. Pools targeting murine MLKL(M-061420-01), murine RIPK1 (M-040150-01), and murine caspase-8 (M-043044-01), as well as a non-targeting “scramble” pool(D-001206-14), were used. Two microliters of a 50 μM stock of these siRNAs were delivered to cells in 6-well format using Lipofectamine siRNA-Max reagent (Life Technologies 13778150) according to the manufacturer's instructions. Forty-eight hours later, these cells were re-plated into 24-well format for cell death assays, or harvested for western blot analysis of knockdowns.
These constructs were transduced into NIH-3T3 cells using standard protocols for helper-dependent retroviral transduction. Transduced cells were selected for 5 days in 1 μg/ml puromycin, then grown to confluence and sorted twice for homogenous GFP expression. […]

[2] = test system: EμMyc+p53^ΔPP/wt tumor-bearing animals; format: in vivo, mice; details: 200 μg zVAD-fmk with 10 μg anti-CD95, intravenously once/day for 5 days
Procedure: EμMyc+p53^ΔPP/wt tumor-bearing animals were injected intravenously once/day for 5 days starting at P35 with 10 μg of the antagonist anti-CD95 Jot antibody and 200 μg of zVAD-fmk or vehicle control. Tumor size was monitored by ultrasound of the thymus, where volume was calculated from 3D reconstructions of the scanned tumors.
In a pilot experiment, mice with detectable tumors at 5 weeks (determined by ultrasound, and characteristic of this lymphoma) were given a short course (5 days) of agonistic anti-CD95 (Jo2) and zVAD-fmk (FIG. 11). […] Controls using zVAD-fmk alone are also included.

[3] = test system: Cells expressing RIPK3ΔC-FKBPx2; assay: Homodimerizer-induced truncated RIPK3 necrosis, PI uptake; format: cell-based; details: homodimerizer 1-100 nM, PI uptake at 3 hrs
Procedure: (§1) FIG. 6 provides a schematic for inducible RIPK-necrosis. Two systems for inducible RIPK-necrosis. […] Cell death in cells expressing RIPK1-FRB/RIPK3-FKBP and treated with heterodimerizer, and death was detected with annexin V-FITC. Death was inhibited by necrostatin-1 (not shown) (FIG. 6B). Cells expressing RIPK3ΔC-FKBPx2, treated with homodimerizer (1-100 nM); death was detected at 3 hrs by PI uptake. No effect of zVAD-fmk or necrostatin was observed (FIG. 6B).
(§2) An inducible dimer system has been employed to trigger homodimerization of caspase-8 in cells (27). The data provided herein support methods to induce RIPK-dependent necrosis by related approaches (FIG. 6A). Heterodimerization of RIPK1 and RIPK3 results in necrosis (see FIG. 6B) which is enhanced by inhibition of caspases and blocked by inhibition of RIPK1 (with nec1, data not shown). In contrast, truncated RIPK3 (lacking the RHIM domain for interaction with RIPK1) can only be oligomerized when FKBP domains (e.g., for example, two domains) that allow multiple monomers to be brought together by the dimerizing agent. Addition of the homodimerization agent to cells expressing this construct induces extremely rapid necrosis that that depends on the kinase activity of RIPK3, but is not affected by inhibition of caspases or nec1 treatment (FIG. 6C).

RIPK3 complexes = assay: DSS crosslinking of necrosome complexes resolved by western blotting; format: cell-based, murine; details: 30 nM AP1; zVAD 50 μM, Nec1 30 μM
Procedure: A confluent monolayer of the indicated cells was incubated with the appropriate treatment for 30 minutes at 37 degrees. Cells were lysed in a modified, Tris-free NP40 buffer (30 mM HEPES pH 7.4, 150 mM NaCl, and 1% NP40) without protease inhibitors. Protein lysate was quantified according to standard BCA assay (Pierce) and fifty micrograms of each sample was treated with 0.1 mM DSS crosslinking agent (Thermo Scientific, #21658) for 30 minutes at room temperature; the reaction was quenched by the addition of Tris-HCl pH 7.2 to a final concentration of 50 mM for 15 minutes. Crosslinked samples were analyzed by Western blot as described above, using the anti-2A primary antibody for detection.

[4] = test system: cells expressing RIPK1-FRB/RIPK3-FKBP; assay: Heterodimerizer-induced RIPK1/RIPK3 necrosis, annexin V-FITC; format: cell-based; details: data not shown
Procedure: as §1, §2

Row | Compound | effect on AP1 (RIPK3 dimerization)-induced cell death [1] | protection from the lethal effects of anti-CD95 in vivo [2] | effect on homodimerizer-induced death [3] | effect of inhibitor on RIPK3 complexes following RIPK3-1xFv dimerization (RIPK3 complexes) | effect on AP1 (RIPK3 dimerization)-induced cell death ([1]; listed as Nec1) | inhibitory effects of Nec1 on RIPK3 oligomerization upon knockdown of RIPK1 ([1]; RIPK1 siRNA, 30 nM AP1, 30 μM Nec1) | effect on heterodimerizer-induced death [4] | effect on heterodimerizer-induced death ([4]; listed as nec1) | effect on homodimerizer-induced death ([3]; listed as nec1)
1 | COC(=O)C[C@H](NC(=O)[C@H](C)NC(=O)[C@@H](NC(=O)OCc1ccccc1)C(C)C)C(=O)CF [zVAD] (Cbz-Val-Ala-Asp(OMe)-CH2F) | notably increased the rate and magnitude of necroptosis | completely protected | No effect | increased shift of RIPK3 into higher molecular weight complexes |  |  |  |  | 
2 | CN1C(=O)C(Cc2c[nH]c3ccccc23)NC1=S (stereo not drawn) [necrostatin-1, Necrostatin-1] | suppressed |  | No effect | diminished the appearance of these complexes | blocked | abrogated | inhibited | blocked | not affected

From US20160160189A1, “Truncated Constructs of RIPK3 and Related Uses” (ST. JUDE CHILDREN'S RESEARCH HOSPITAL, priority 2013, published 2016)
